Laboratory results: patent publication US8791132B2, “Compounds and methods for treatment of hypertension” (Medivation Technologies, Inc., priority 2011, dated 2014)
pKi: −log10 of the molar value. “And” between values parts separate entries of the source, which are not always exact repeats. Identical values can stand only once. Like-named read-outs stand apart in the source and are kept apart here.

What was measured:
[1] = molecular target: T1, human recombinant adrenergic α2A receptor (Homo sapiens, UniProt P08913); assay: Radioligand binding, adrenergic α2A ([3H]MK-912); conditions: for Percentage inhibition of ligand binding, Adrenergic α2A: 0.1 µM
T1 construct: expressed in transfected cells; host or cells: insect Sf9 cells
T1 sequence (P08913 1-465): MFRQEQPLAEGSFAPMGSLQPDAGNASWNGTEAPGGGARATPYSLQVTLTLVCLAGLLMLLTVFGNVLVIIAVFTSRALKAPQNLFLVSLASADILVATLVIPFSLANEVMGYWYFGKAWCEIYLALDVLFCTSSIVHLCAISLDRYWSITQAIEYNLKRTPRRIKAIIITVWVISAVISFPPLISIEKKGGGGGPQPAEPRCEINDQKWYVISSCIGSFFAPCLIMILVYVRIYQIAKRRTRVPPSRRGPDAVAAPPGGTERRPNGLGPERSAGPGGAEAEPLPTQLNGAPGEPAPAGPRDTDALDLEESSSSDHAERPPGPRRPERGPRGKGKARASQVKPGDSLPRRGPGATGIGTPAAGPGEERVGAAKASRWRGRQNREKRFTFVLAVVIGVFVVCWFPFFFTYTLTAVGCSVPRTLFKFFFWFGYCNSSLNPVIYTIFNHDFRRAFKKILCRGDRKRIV
Method in brief: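 Sf9-expressed receptor was incubated with compound for 60 min at 25 °C in modified Tris-HCl buffer, pH 7.4. Nonspecific binding was taken as that remaining with 10 μM WB-4101.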

[2] = molecular target: T2, rat adrenergic α1B receptor (Rattus norvegicus, UniProt P15823); assay: Radioligand binding, adrenergic α1B ([3H]Prazosin)
T2 construct: rat adrenergic α1B receptor obtained from Wistar Rat liver; from tissue; host or cells: Wistar rat liver
T2 sequence (P15823 1-515): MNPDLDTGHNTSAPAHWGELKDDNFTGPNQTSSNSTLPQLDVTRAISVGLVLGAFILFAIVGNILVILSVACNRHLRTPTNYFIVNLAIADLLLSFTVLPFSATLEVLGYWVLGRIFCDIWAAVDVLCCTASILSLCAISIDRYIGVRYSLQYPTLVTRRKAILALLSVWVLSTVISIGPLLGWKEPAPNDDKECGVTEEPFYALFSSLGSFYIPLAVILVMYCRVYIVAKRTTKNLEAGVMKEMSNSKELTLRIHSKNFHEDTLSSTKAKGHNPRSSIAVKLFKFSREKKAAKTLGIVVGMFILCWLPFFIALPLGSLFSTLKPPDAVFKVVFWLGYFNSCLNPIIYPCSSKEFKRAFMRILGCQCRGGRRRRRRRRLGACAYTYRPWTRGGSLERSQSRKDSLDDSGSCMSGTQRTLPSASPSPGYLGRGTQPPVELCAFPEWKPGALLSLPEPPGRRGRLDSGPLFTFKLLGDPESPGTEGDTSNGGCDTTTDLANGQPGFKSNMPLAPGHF
Method in brief: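 Incubation ran 60 min at 25 °C in Tris-HCl buffer (50 mM, pH 7.4, 0.5 mM EDTA) with Wistar rat liver α1B receptor. 10 μM phentolamine set non-specific binding.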

[3] = molecular target: T3, human recombinant adrenergic α2B receptor (Homo sapiens, UniProt P18089); assay: Radioligand binding, adrenergic α2B ([3H]Rauwolscine); conditions: for inhibition at 0.03 µM / inhibition at 0.1 µM / Percentage inhibition of ligand binding, Adrenergic α2B: [3H]Rauwolscine; for pKi: read-out: Ki α2B
T3 construct: expressed in transfected cells; host or cells: CHO-K1
T3 sequence (P18089 1-450): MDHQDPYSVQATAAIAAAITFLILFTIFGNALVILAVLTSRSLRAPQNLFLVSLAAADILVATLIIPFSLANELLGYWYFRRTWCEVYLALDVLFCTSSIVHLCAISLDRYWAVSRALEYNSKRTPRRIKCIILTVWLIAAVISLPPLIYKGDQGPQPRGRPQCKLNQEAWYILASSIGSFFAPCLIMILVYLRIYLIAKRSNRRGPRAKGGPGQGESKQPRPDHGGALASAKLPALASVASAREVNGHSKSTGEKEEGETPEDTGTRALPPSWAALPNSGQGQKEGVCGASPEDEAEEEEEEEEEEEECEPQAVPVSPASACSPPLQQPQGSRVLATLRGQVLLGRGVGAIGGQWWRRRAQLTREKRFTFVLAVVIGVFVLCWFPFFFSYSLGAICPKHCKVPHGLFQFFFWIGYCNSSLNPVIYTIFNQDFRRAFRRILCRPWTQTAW
Method in brief: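 Assay used CHO-K1-expressed human α2B receptor in Tris-HCl pH 7.4 buffer with MgCl2, EDTA and BSA; 60 min incubation at 25 °C.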

[4] = compound at 0.03 μM, [3H]MK-912, repeat assays, each datapoint shown, read-out: Percentage inhibition of ligand binding, Adrenergic α2A
[5] = compound at 0.1 μM, [3H]MK-912, repeat assays, each datapoint shown
[6] = compound at 0.03 μM, [3H]Prazosin, repeat assays, each datapoint shown, 0.03 µM
[7] = compound at 0.1 μM, [3H]Prazosin, repeat assays, each datapoint shown, 0.1 µM
[8] = compound at 0.03 μM, repeat assays, each datapoint shown, 0.03 µM
[9] = compound at 0.1 μM, [3H]MK-912, repeat assays, each datapoint shown, read-out: Percentage inhibition of ligand binding, Adrenergic α2A
[10] = compound at 0.03 μM, [3H]Prazosin, repeat assays, each datapoint shown, read-out: Percentage inhibition of ligand binding, Adrenergic α1B
[11] = compound at 0.1 μM, [3H]Prazosin, repeat assays, each datapoint shown, read-out: Percentage inhibition of ligand binding, Adrenergic α1B
[12] = compound at 0.03 μM, repeat assays, each datapoint shown, read-out: Percentage inhibition of ligand binding, Adrenergic α2B
[13] = compound at 0.1 μM, repeat assays, each datapoint shown, read-out: Percentage inhibition of ligand binding, Adrenergic α2B
[14] = compound at 0.1 μM, repeat assays, each datapoint shown, 0.1 µM

With `Cc1ccc(C(O)Cn2c3c(c4cc(C)ccc42)CN(C)CC3)cc1` (racemic) [compound 183, racemic-2-(1,2,3,4-tetrahydro-2,8-dimethylpyrido[4,3-b]indol-5-yl)-1-p-tolylethanol] the inhibition at 0.1 µM ([1]; read-out: Percentage inhibition of ligand binding, Adrenergic α2A (0.1 μM), compound at 0.1 μM, [3H]MK-912, repeat datapoints each shown) was 93%, the inhibition at 0.03 µM ([2]; read-out: Percentage inhibition of ligand binding, Adrenergic α1B (0.03 μM), compound at 0.03 μM, [3H]Prazosin, repeat datapoints each shown) was 50% and the inhibition at 0.1 µM ([2]; read-out: Percentage inhibition of ligand binding, Adrenergic α1B (0.1 μM), compound at 0.1 μM, [3H]Prazosin, repeat datapoints each shown) was 71%. The inhibition at 0.03 µM ([3]; read-out: Percentage inhibition of ligand binding, Adrenergic α2B (0.03 μM), compound at 0.03 μM, repeat datapoints each shown) was 68% and the inhibition at 0.1 µM ([3]; read-out: Percentage inhibition of ligand binding, Adrenergic α2B (0.1 μM), compound at 0.1 μM, repeat datapoints each shown) was 80%.

In the case of `Cc1ccc2c(c1)c1c(n2CC(O)c2ccncc2)CCN(C)C1` (single isomer, unassigned) [3b], the pKi [1] was 6.86 and 6.78 and 6.65, the inhibition at 0.03 µM [1, 4] was 1% and the “Percentage inhibition of ligand binding, Adrenergic α2A” value [1, 5] was 21% and 22% and 23% and 25%. The pKi [2] was 7.29, the “Percentage inhibition of ligand binding, Adrenergic α1B” value [2, 6] was 27% and 32% and 34% and the “Percentage inhibition of ligand binding, Adrenergic α1B” value [2, 7] was 50% and 55% and 57% and 61%. The “Percentage inhibition of ligand binding, Adrenergic α2B” value (“Percentage inhibition … Adrenergic α2B” below) [3, 8] was 100% and 101% and 102% and 112% and the pKi [3] was 9.59 and 9.55 and 9.34.

For `CN1CCc2c(c3cc(Cl)ccc3n2CC(O)c2ccncc2)C1` (single isomer, unassigned) [4a], the pKi [1] was 6.75, the inhibition at 0.03 µM [1, 4] was 5% and the “Percentage inhibition of ligand binding, Adrenergic α2A” value [1, 5] was 24%. The inhibition at 0.1 µM [1, 9] was 19%, the inhibition at 0.03 µM [2, 10] was 25% and the “Percentage inhibition of ligand binding, Adrenergic α1B” value [2, 7] was 57%. The inhibition at 0.1 µM [2, 11] was 52%, the “Percentage inhibition … Adrenergic α2B” value [3, 8] was 103% and the inhibition at 0.03 µM [3, 12] was 99%. It also gave an inhibition at 0.1 µM [3, 13] of 104% and a pKi [3] of 9.19.

`Cc1ccc2c(c1)c1c(n2CC(C)(O)c2cccnc2)CCN(C)C1` (single isomer, unassigned) [5b, 1-(1,2,3,4-tetrahydro-2,8-dimethylpyrido[4,3-b]indol-5-yl)-2-(pyridin-3-yl)propan-2-ol] was tested, and the pKi [1] was 6.82 and 6.72 and 6.71, the “Percentage inhibition of ligand binding, Adrenergic α2A” value [1, 5] was 18% and 21% and 22% and the pKi [2] was 6.74. For the same molecule, the “Percentage inhibition of ligand binding, Adrenergic α1B” value [2, 6] was 11% and 15%, the inhibition at 0.03 µM [2, 10] was 10% and the “Percentage inhibition of ligand binding, Adrenergic α1B” value [2, 7] was 23% and 30% and 33%. For the same molecule, the “Percentage inhibition … Adrenergic α2B” value [3, 8] was 81% and 86% and 90% and 100%, the “Percentage inhibition … Adrenergic α2B” value [3, 14] was 82% and 100% and 107% and the pKi [3] was 9.02 and 8.97 and 8.34.

`Cc1ccc2c(c1)c1c(n2CC(O)c2ccncc2)CCN(C)CC1` (single isomer, unassigned) [13b, 2-(3,9-dimethyl-2,3,4,5-tetrahydroazepino[4,5-b]indol-6(1H)-yl)-1-(pyridin-4-yl)ethanol] showed a pKi [1] of 6.70, an inhibition at 0.03 µM [2, 10] of 68% and an inhibition at 0.1 µM [2, 11] of 91%. For the same molecule, the “Percentage inhibition … Adrenergic α2B” value [3, 8] was 102%, the inhibition at 0.03 µM [3, 12] was 100% and the pKi [3] was 9.21.

With `Cc1cnc2c(c1)c1c(n2CC(C)(O)c2cccnc2)CCN2CCCC12` (single isomer, unassigned) [26a] the pKi [1] was 6.95, the inhibition at 0.03 µM [1, 4] was 14% and the “Percentage inhibition of ligand binding, Adrenergic α2A” value [1, 5] was 23% and 33%. The inhibition at 0.03 µM [2, 10] was 32%, the “Percentage inhibition of ligand binding, Adrenergic α1B” value [2, 7] was 52% and 61% and the “Percentage inhibition … Adrenergic α2B” value [3, 8] was 101% and 107%. For the same molecule, the pKi [3] was 9.25.

With `Cc1ccc2c(c1)c1c(n2CC(N)c2ccncc2)CCN(C)C1` (single isomer, unassigned) [27a, 2-(1,2,3,4-tetrahydro-2,8-dimethylpyrido[4,3-b]indol-5-yl)-1-(pyridin-4-yl)ethanamine] the pKi [1] was 5.96, the “Percentage inhibition of ligand binding, Adrenergic α2A” value [1, 5] was 2% and 11% and the inhibition at 0.03 µM [2, 10] was 34%. The “Percentage inhibition of ligand binding, Adrenergic α1B” value [2, 7] was 59% and 64%, the “Percentage inhibition … Adrenergic α2B” value [3, 8] was 76% and 83% and the “Percentage inhibition … Adrenergic α2B” value [3, 14] was 94%. The pKi [3] was 8.36.

With `Cc1ccc2c(c1)c1c(n2CC(O)c2ccncc2)CCNC1` (single isomer, unassigned) [39a, 2-(8-methyl-1,2,3,4-tetrahydro-pyrido[4,3-b]indol-5-yl)-1-pyridin-4-yl-ethanol] the pKi [1] was 5.78, the inhibition at 0.03 µM [1, 4] was 5% and the “Percentage inhibition of ligand binding, Adrenergic α2A” value [1, 5] was 15%. The inhibition at 0.1 µM [1, 9] was 13%, the inhibition at 0.03 µM [2, 10] was 9% and the “Percentage inhibition of ligand binding, Adrenergic α1B” value [2, 7] was 33%. For the same molecule, the inhibition at 0.1 µM [2, 11] was 38%, the inhibition at 0.03 µM [3, 12] was 86% and the inhibition at 0.1 µM [3, 13] was 92%. For the same molecule, the pKi [3] was 8.60.

For `CN1CCc2c(n(CC(O)c3ccncc3)c3ccc(Cl)cc23)C1` (single isomer, unassigned) [41a], the “Percentage inhibition of ligand binding, Adrenergic α2A” value [1, 5] was −9%, the “Percentage inhibition of ligand binding, Adrenergic α1B” value [2, 7] was 43% and the “Percentage inhibition … Adrenergic α2B” value [3, 8] was 14%.

With `Cc1cnc2c(c1)c1c(n2CCc2ccc(C)nc2)CCN2CCCC12` (single isomer, unassigned) [74a, 10-methyl-7-(2-(6-methylpyridin-3-yl)ethyl)-2,3,5,6,7,11c-hexahydro-1H-pyrido[3′,2′:4,5]pyrrolo[2,3-g]indolizine] the pKi [1] was 6.63, the “Percentage inhibition of ligand binding, Adrenergic α2A” value [1, 5] was 27% and the inhibition at 0.1 µM [1, 9] was 22%. The pKi [2] was 8.33, the inhibition at 0.03 µM [2, 10] was 81% and the “Percentage inhibition of ligand binding, Adrenergic α1B” value [2, 7] was 96%. For the same molecule, the inhibition at 0.1 µM [2, 11] was 91%, the inhibition at 0.03 µM [3, 12] was 93% and the inhibition at 0.1 µM [3, 13] was 101%. The pKi [3] was 8.85.

`Cc1ccc2c(c1)c1c(n2CC(O)c2ccncc2)CCN2CCCC12` (single isomer, unassigned) [129d] was tested, and the pKi [1] was 8.73, the “Percentage inhibition of ligand binding, Adrenergic α2A (0.03 μM)” value ([1]; compound at 0.03 μM, [3H]MK-912, repeat datapoints each shown, 0.03 µM) was 87% and the “Percentage inhibition of ligand binding, Adrenergic α1B (0.03 μM)” value ([2]; compound at 0.03 μM, [3H]Prazosin, repeat datapoints each shown, 0.03 µM) was 93%. The “Percentage inhibition of ligand binding, Adrenergic α1B (0.1 μM)” value ([2]; compound at 0.1 μM, [3H]Prazosin, repeat datapoints each shown, 0.1 µM) was 94% and 99% and the pKi [3] was 9.46.
